Source: patent US9233965B2, “3,4-dihydropyrrolo[1,2-A]pyrazine-2,8(1H)-dicarboxamide derivatives, preparation thereof and therapeutic use thereof for diseases involving casein kinase 1 epsilon and/or casein kinase 1 delta” (SANOFI, priority 2010, dated 2016)

What was measured:
[1] = target: casein kinase 1 epsilon (CK1 epsilon) (Homo sapiens (Human), UniProt P49674); test: Test A: inhibitory activity on CK1 epsilon, casein phosphorylation assay on ATP-33P filter plate; format: biochemical; settings: IC50 values or IC50 ranges (result of several experiments), ATP 10 μM final
Description: The capacity of the compounds of the invention to inhibit the phosphorylation of casein by casein kinase 1 epsilon and/or delta may be evaluated according to the procedures described in document US 2005/0 131 012.
Test A: Inhibitory Activity on CK1 Epsilon Measured by Assay on an ATP-^33P Filter Plate
The effect of the compounds on inhibition of the phosphorylation of casein by the enzyme casein kinase 1 epsilon (CK1 epsilon) is measured, using a casein assay via filtration of ATP-^33P in vitro.
Casein kinase 1 epsilon (0.58 mg/ml) is obtained via fermentation and purification processes performed according to methods that are well known to those skilled in the art, or may also be obtained from Invitrogen Corporation™ (human CK1 epsilon).
The compounds are tested at five different concentrations so as to generate IC50 values, i.e. the concentration at which a compound is capable of inhibiting the enzymatic activity by 50%, or alternatively the percentage of inhibition at a concentration of 10 micromolar.
“U”-bottomed Falcon plates are prepared by placing 5 μL of solutions of the compounds according to the invention at concentrations of 10, 1, 0.1, 0.01 or 0.001 μM in different wells. The solutions of the compounds according to the invention at these various concentrations are prepared by diluting in a test buffer (Tris 50 mM pH 7.5, MgCl2 […], DTT 2 mM and EGTA 1 mM) a stock solution in DMSO at a concentration of 10 mM. Next, 5 μL of dephosphorylated casein are added to a final concentration of 0.2 μg/μL, 20 μL of CK1 epsilon to a final concentration of 3 ng/μL, and 20 μL of ATP-^33P to a final concentration of 0.02 μCi/μL mixed with cold ATP (10 μM final—approximately 2×10^6 CPM per well). The final total test volume per well is equal to 50 μL.
The “U”-bottomed Falcon® test plate mentioned above is vortexed, and then incubated at room temperature for 2 hours. After 2 hours the reaction is stopped by adding an ice-cold solution of 65 μL of cold ATP (2 mM) prepared in test buffer.
100 μL of the reaction mixture are then transferred from the “U”-bottomed Falcon® plate into Millipore® MAPH filter plates, preimpregnated with 25 μL of ice-cold 100% TCA.
The Millipore MAPH filter plates are agitated gently and are left to stand at room temperature for at least 30 minutes to precipitate the proteins.
After 30 minutes, the filter plates are sequentially washed and filtered with 2×150 μL of 20% TCA, 2×150 μL of 10% TCA and 2×150 μL of 5% TCA (6 washes in total per plate/900 μL per well).
The plates are left to dry overnight at room temperature. Next, 40 μL of Microscint-20 Packard® scintillation liquid are added per well and the plates are closed in a leaktight manner. The radiation emitted by each well is then measured for 2 minutes in a TopCount NXT Packard® scintillation counter, in which the values of CPM/well are measured.
The percentage inhibition of the capacity of the enzyme to phosphorylate the substrate (casein) is determined for each concentration of test compound. These inhibition data expressed as percentages are used to calculate the IC50 value for each compound compared with the controls.
The kinetic studies determined the KM value for ATP as being 21 μM in this test system.
Table 2 below gives the IC50 values or the IC50 inhibition ranges (result of several experiments) for the phosphorylation of Casein Kinase 1 Epsilon for a number of compounds according to the invention.

casein kinase 1 epsilon (CK1 epsilon), sequence (P49674 whole entry): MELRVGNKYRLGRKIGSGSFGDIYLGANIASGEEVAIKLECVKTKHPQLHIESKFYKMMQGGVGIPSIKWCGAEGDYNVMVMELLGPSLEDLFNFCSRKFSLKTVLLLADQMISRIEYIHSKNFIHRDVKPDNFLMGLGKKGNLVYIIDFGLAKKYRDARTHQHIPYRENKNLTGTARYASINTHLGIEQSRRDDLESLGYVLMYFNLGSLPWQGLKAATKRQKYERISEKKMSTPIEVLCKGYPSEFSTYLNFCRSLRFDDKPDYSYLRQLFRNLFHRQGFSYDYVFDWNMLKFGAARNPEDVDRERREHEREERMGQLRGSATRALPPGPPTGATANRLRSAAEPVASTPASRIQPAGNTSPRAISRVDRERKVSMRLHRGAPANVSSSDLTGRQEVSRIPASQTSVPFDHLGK

Q: For `CC(C)(NC(=O)N1CCn2c(Cl)c(-c3cccc(F)c3)c(C(N)=O)c2C1)C(F)(F)F` [Compound 79, 6-chloro-7-(3-fluorophenyl)-N^2-(1,1,1-trifluoro-2-methylpropan-2-yl)-3,4-dihydropyrrolo[1,2-a]pyrazine-2,8(1H)-dicarboxamide], which melting point is on record?
A: Its melting point is 183 to 187 °C.

Q: What about the IC50 [1] of the same compound?
A: The IC50 was 1 to 4 nM.

Q: With `N#Cc1cccc(-c2c(C(N)=O)c3n(c2Cl)CCN(C(=O)NC2CCOCC2)C3)c1` [Compound 95, 6-chloro-7-(3-cyanophenyl)-N^2-(tetrahydro-2H-pyran-4-yl)-3,4-dihydropyrrolo[1,2-a]pyrazine-2,8(1H)-dicarboxamide] as the compound, how does the melting point read?
A: Its melting point is 236 to 238 °C.

Q: What about the IC50 [1] of the same compound?
A: The IC50 was 6 nM.

Q: With `N#Cc1c(-c2cccc(F)c2)c(C(N)=O)c2n1CCN(C(=O)NC1CCOCC1)C2` [Compound 109, 6-cyano-7-(3-fluorophenyl)-N^2-(tetrahydro-2H-pyran-4-yl)-3,4-dihydropyrrolo[1,2-a]pyrazine-2,8(1H)-dicarboxamide] as the compound, how does the melting point read?
A: The melting point was 232 to 234 °C.

Q: What about the IC50 [1] of the same compound?
A: Its IC50 is 9 nM.

Q: What does the source list for `NC(=O)c1c(-c2cccc(F)c2)c(Cl)n2c1CN(C(=O)NC1CCOCC1)CC2` [Compound 98, 6-chloro-7-(3-fluorophenyl)-N^2-(tetrahydro-2H-pyran-4-yl)-3,4-dihydropyrrolo[1,2-a]pyrazine-2,8(1H)-dicarboxamide]?
A: melting point: 223 to 225 °C; IC50 [1]: 2 to 16 nM

Q: Which results are given for `COCC(C)(C)NC(=O)N1CCn2c(c(C(N)=O)c(-c3ccc(OC)cc3)c2C2CC2)C1` [Compound 57, 6-cyclo-propyl-N^2-(1-methoxy-2-methylpropan-2-yl)-7-(4-methoxyphenyl)-3,4-dihydropyrrolo[1,2-a]pyrazine-2,8(1H)-dicarboxamide]?
A: melting point: 168 to 170 °C; IC50 [1]: 36 nM

Q: For `CC(C)(CO)CNC(=O)N1CCn2c(Cl)c(-c3cccc(F)c3)c(C(N)=O)c2C1` [Compound 73, 6-chloro-7-(3-fluorophenyl)-N^2-(3-hydroxy-2,2-dimethylpropyl)-3,4-dihydropyrrolo[1,2-a]pyrazine-2,8(1H)-dicarboxamide], which melting point is on record?
A: The melting point was 205 to 207 °C.

Q: What about the IC50 [1] of the same compound?
A: Its IC50 is 1 to 11 nM.

Q: For `NC(=O)c1c(-c2cccc(F)c2)c(Cl)n2c1CN(C(=O)NC1COC1)CC2` [Compound 90, 6-chloro-7-(3-fluorophenyl)-N^2-(oxetan-3-yl)-3,4-dihydropyrrolo[1,2-a]pyrazine-2,8(1H)-dicarboxamide], which melting point is on record?
A: Its melting point is 184 to 186 °C.

Q: And the IC50 [1]?
A: Its IC50 is 6 to 7 nM.

Q: Which melting point does the source give for `C[C@H](NC(=O)N1CCn2c(Cl)c(-c3cccc(F)c3)c(C(N)=O)c2C1)C(F)(F)F` [Compound 78, 6-chloro-7-(3-fluorophenyl)-N^2-[(2S)-1,1,1-trifluoropropan-2-yl]-3,4-dihydropyrrolo[1,2-a]pyrazine-2,8(1H)-dicarboxamide] here?
A: The melting point was 190 to 193 °C.

Q: And the IC50 [1]?
A: The IC50 was 3 nM.

Q: For `NC(=O)c1c(-c2cccc(F)c2)c(Cl)n2c1CN(C(=O)NC1CCC(F)(F)CC1)CC2` [Compound 89, 6-chloro-N^2-(4,4-difluoro-cyclo-hexyl)-7-(3-fluorophenyl)-3,4-dihydropyrrolo[1,2-a]pyrazine-2,8(1H)-dicarboxamide], which melting point is on record?
A: Its melting point is 212 to 214 °C.

Q: And the IC50 [1]?
A: The IC50 was 1 to 3 nM.

Q: Which melting point does the source give for `CC(C)(C)NC(=O)N1CCn2c(c(C(N)=O)c(-c3cccc(OCc4ccccc4)c3)c2C2CC2)C1` [Compound 34, 7-[3-(benzyloxy)phenyl]-N^2-tert-butyl-6-cyclo-propyl-3,4-dihydropyrrolo[1,2-a]pyrazine-2,8(1H)-dicarboxamide] here?
A: Its melting point is 156 to 158 °C.

Q: What about the IC50 [1] of the same compound?
A: The IC50 was 315 nM.

Q: What does the source list for `Cc1cccc(-c2c(C(N)=O)c3n(c2Cl)CCN(C(=O)NC(C)(C)C)C3)c1` [Compound 61, N^2-tert-butyl-6-chloro-7-(3-methylphenyl)-3,4-dihydropyrrolo[1,2-a]pyrazine-2,8(1H)-dicarboxamide]?
A: melting point: 196 to 197 °C; IC50 [1]: 1 to 8 nM

Q: What does the source list for `COc1ccc(-c2c(C(N)=O)c3n(c2C2CC2)CCN(C(=O)NC2CCOCC2)C3)cc1` [Compound 56, 6-cyclo-propyl-7-(4-methoxyphenyl)-N^2-(tetrahydro-2H-pyran-4-yl)-3,4-dihydropyrrolo[1,2-a]pyrazine-2,8(1H)-dicarboxamide]?
A: melting point: 176 to 177 °C; IC50 [1]: 26 to 38 nM

Q: Which melting point does the source give for `CC(C)CCNC(=O)N1CCn2c(Cl)c(-c3ccccc3)c(C(N)=O)c2C1` [Compound 69, 6-chloro-N^2-(3-methylbutyl)-7-phenyl-3,4-dihydropyrrolo[1,2-a]pyrazine-2,8(1H)-dicarboxamide] here?
A: The melting point was 154 to 155 °C.

Q: And the IC50 [1]?
A: Its IC50 is 5 nM.

Q: For `Cc1cccc(-c2c(C(N)=O)c3n(c2Cl)CCN(C(=O)NC2CCOCC2)C3)c1` [Compound 94, 6-chloro-7-(3-methylphenyl)-N^2-(tetrahydro-2H-pyran-4-yl)-3,4-dihydropyrrolo[1,2-a]pyrazine-2,8(1H)-dicarboxamide], which melting point is on record?
A: Its melting point is 231 to 234 °C.

Q: What about the IC50 [1] of the same compound?
A: Its IC50 is 2 to 18 nM.

Q: What does the source list for `COc1ccc(-c2c(C(N)=O)c3n(c2C2CC2)CCN(C(=O)NC(C)(C)C)C3)cc1` [Compound 36, N^2-tert-butyl-6-cyclo-propyl-7-[4-(methoxy)phenyl]-3,4-dihydropyrrolo[1,2-a]pyrazine-2,8(1H)-dicarboxamide]?
A: melting point: 177 to 179 °C; IC50 [1]: 46 to 75 nM

Q: Which results are given for `CC(C)(NC(=O)N1CCn2c(C#N)c(-c3cccc(F)c3)c(C(N)=O)c2C1)C(F)(F)F` [Compound 107, 6-cyano-7-(3-fluorophenyl)-N^2-(1,1,1-trifluoro-2-methylpropan-2-yl)-3,4-dihydropyrrolo[1,2-a]pyrazine-2,8(1H)-dicarboxamide]?
A: melting point: 202 to 204 °C; IC50 [1]: < 1 nM

Q: Which melting point does the source give for `COc1ccc(-c2c(C(N)=O)c3n(c2Cl)CCN(C(=O)NC(C)(C)C)C3)cc1` [Compound 64, N^2-tert-butyl-6-chloro-7-(4-methoxyphenyl)-3,4-dihydropyrrolo[1,2-a]pyrazine-2,8(1H)-dicarboxamide] here?
A: Its melting point is 168 to 170 °C.

Q: What about the IC50 [1] of the same compound?
A: Its IC50 is 1 to 5 nM.

Q: Which results are given for `CC1(C)CC(NC(=O)N2CCn3c(Cl)c(-c4cccc(F)c4)c(C(N)=O)c3C2)CCO1` (stereo not drawn) [Compound 99, 6-chloro-7-(3-fluorophenyl)-N^2-(2,2-dimethyl-tetrahydro-2H-pyran-4-yl)-3,4-dihydropyrrolo[1,2-a]pyrazine-2,8(1H)-dicarboxamide]?
A: melting point: 141 to 143 °C; IC50 [1]: 4 nM

Q: What does the source list for `COc1ccc(-c2cn3c(c2C(N)=O)CN(C(=O)NC(C)(C)C)CC3)cc1` [Compound 2, N^2-tert-butyl-7-(4-methoxyphenyl)-3,4-dihydropyrrolo[1,2-a]pyrazine-2,8(1H)-dicarboxamide]?
A: melting point: 197 to 198 °C; IC50 [1]: < 1 nM

Q: With `NC(=O)c1c(-c2ccccc2)c(Cl)n2c1CN(C(=O)NC1CC3CCC1C3)CC2` (stereo not drawn) [Compound 88, N^2-(bicyclo[2.2.1]hept-2-yl)-6-chloro-7-phenyl-3,4-dihydropyrrolo[1,2-a]pyrazine-2,8(1H)-dicarboxamide] as the compound, how does the IC50 [1] read?
A: Its IC50 is 3 to 5 nM.

Q: For `CON=C1CCC(NC(=O)N2CCn3c(Cl)c(-c4cccc(F)c4)c(C(N)=O)c3C2)CC1` (stereo not drawn) [Compound 86, trans-6-chloro-7-(3-fluorophenyl)-N^2-(4-methoxyimino-cyclohexyl)-3,4-dihydropyrrolo[1,2-a]pyrazine-2,8(1H)-dicarboxamide], which IC50 [1] is on record?
A: Its IC50 is < 1 nM.

Q: With `CC(C)(C)NC(=O)N1CCn2c(c(C(N)=O)c(-c3cccc(C(F)(F)F)c3)c2C2CC2)C1` [Compound 16, N^2-tert-butyl-6-cyclo-propyl-7-[3-(trifluoromethyl)phenyl]-3,4-dihydropyrrolo[1,2-a]pyrazine-2,8(1H)-dicarboxamide] as the compound, how does the IC50 [1] read?
A: Its IC50 is 19 to 57 nM.

Q: Which IC50 [1] does the source give for `NC(=O)c1c(-c2cccc(F)c2)c(Cl)n2c1CN(C(=O)NCCCC(F)(F)F)CC2` [Compound 81, 6-chloro-7-(3-fluorophenyl)-N^2-(4,4,4-trifluorobutyl)-3,4-dihydropyrrolo[1,2-a]pyrazine-2,8(1H)-dicarboxamide] here?
A: Its IC50 is 2 to 16 nM.
